{"source": "paper PMC9350523", "about": "(Dose-Response, 2022)", "key": {"BRAF": {"system": "BRAF", "conditions": "cited from earlier work"}, "[1]": {"system": "glutamine synthetase 2 (GS2)", "conditions": "cited from earlier work"}, "human PCNA": {"target": "human PCNA (Homo sapiens, UniProt P12004)", "sequence (P12004 whole entry)": "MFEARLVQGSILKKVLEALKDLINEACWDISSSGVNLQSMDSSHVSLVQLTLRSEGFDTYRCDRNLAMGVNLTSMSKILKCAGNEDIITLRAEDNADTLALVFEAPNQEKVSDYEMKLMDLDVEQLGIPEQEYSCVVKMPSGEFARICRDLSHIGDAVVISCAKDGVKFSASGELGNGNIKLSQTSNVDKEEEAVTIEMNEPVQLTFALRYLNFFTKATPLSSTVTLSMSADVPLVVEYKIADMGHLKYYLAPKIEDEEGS", "assay": "Fluorescence anisotropy competition: displacement of 50 nM PL peptide from PCNA", "format": "binding", "conditions": "for f (hormesis parameter): f not different from 0 (95% confidence interval), no significant hormesis"}, "[2]": {"conditions": "GS2 from chloroplasts of Lotus corniculatus"}, "[3]": {"conditions": "UNG2(a.a.1-19) competitor, .25 μM PCNA, hormetic curve"}}, "note": "Ends that are not written are not given here.", "data": [{"compound": "CC(C)(C)c1nc(-c2cccc(NS(=O)(=O)c3c(F)cccc3F)c2F)c(-c2ccnc(N)n2)s1", "note": "[dabrafenib]", "values": [{"measurement": "mode of inhibition", "setting": "BRAF", "value": "competitive with ATP"}]}, {"compound": "CS(=N)(=O)CC[C@H](N)C(=O)O", "note": "(stereo partly shown) [methionine sulfoximine]", "values": [{"measurement": "mode of inhibition", "setting": "[1]; GS2", "value": "competitive with glutamate and a somewhat irreversible inhibitor"}, {"measurement": "GS2 activity at high methionine sulfoximine doses", "setting": "[1]; [2]", "value": "completely inhibit the enzyme"}, {"measurement": "GS2 activity at low methionine sulfoximine concentrations", "setting": "[1]; [2]", "value": "allosteric stimulatory effect on other subunits of the octamer"}]}, {"compound": "MIGQKTLYSFFSPSPARKR [UNG2(a.a.1-19)]", "values": [{"measurement": "b (slope parameter)", "setting": "human PCNA; UNG2(a.a.1-19) competitor, 1 μM PCNA, 50 nM PL peptide, hormetic curve", "value": 1.497}, {"measurement": "b (slope parameter)", "setting": "human PCNA; UNG2(a.a.1-19) competitor, 1 μM PCNA, 50 nM PL peptide, standard curve", "value": 1.143}, {"measurement": "f (hormesis parameter)", "setting": "human PCNA; UNG2(a.a.1-19) competitor, 1 μM PCNA, hormetic curve", "value": ".0044^ c"}, {"measurement": "b (slope parameter)", "setting": "human PCNA; UNG2(a.a.1-19) competitor, .25 μM PCNA, 50 nM PL peptide, hormetic curve", "value": 2.798}, {"measurement": "b (slope parameter)", "setting": "human PCNA; UNG2(a.a.1-19) competitor, .25 μM PCNA, 50 nM PL peptide, standard curve", "value": 3.423}, {"measurement": "c (lower asymptote)", "setting": "human PCNA; [3]", "value": ".0572"}, {"measurement": "f (hormesis parameter)", "setting": "human PCNA; [3]", "value": ".0013^ c"}, {"measurement": "displacement / hormetic response", "setting": "human PCNA; UNG2(a.a.1-19), .25 and 1 μM PCNA, 50 nM PL peptide", "value": "displaced PL peptide from PCNA without a hormetic response"}, {"measurement": "control: PL peptide anisotropy in the absence of PCNA", "setting": "human PCNA; competitor included in the cuvette without PCNA", "value": "the fluorescence anisotropy of PL peptide was unchanged"}]}]}
